From US7098348B2, “Triptolide derivatives as immunomodulators and anticancer agents” (priority 2002, dated 2006)

How the values were obtained:
[1] = tested on: Jurkat human T lymphocyte cell line; test: Annexin V apoptosis assay; type: cell-based; conditions: 24 hours, compound pre-incubated in human serum 48 hours, FIG. 1
Protocol: (§1) Pooled human serum was stored in aliquots at −80° C. Test compounds were added at 20 mM to thawed human serum in 1.5 ml microfuge tubes and incubated at 37° C. in a water bath for 48 hours. The test samples were placed on ice until dilution for the bioassay. Controls consisted of the compounds incubated in complete tissue culture medium (RPMI 1640 medium plus 5% heat-inactivated fetal calf serum, 1% HEPES, 1% pen/strep, 1% glutamine) rather than human serum.
Test samples (incubated in human serum as described in section A) were diluted to 1 mM in complete tissue culture medium. Aliquots were placed in microculture plates and serial dilutions were prepared so that the final concentration would encompass the range of 2 to 6,000 nM with half-log increments. […]
After 24 hours, the plates were centrifuged to pellet the cells, and the cells were washed twice with 2% heat-inactivated fetal calf serum in PBS. […] The contents of the wells were individually transferred into test tubes, and apoptosis was analyzed using a FACSCalibur flow cytometer (BD Immunocytometry Systems, San Jose, Calif.). Cells positive for Annexin V binding were considered to be apoptotic, and the data were calculated as percent apoptotic cells. […]

[2] = tested on: IL-2 production by Jurkat cells; test: IL-2 production assay; type: cell-based; conditions: Jurkat cells stimulated with anti-CD3 antibody and PMA, 24 hours; compound pre-incubated in human serum; FIG. 2
Protocol: as §1
Test samples, incubated in human serum as described in Example 2A, were diluted to 1 mM in complete tissue culture medium. Aliquots were placed in microculture plates that had been coated with anti-CD3 antibody (used to stimulate the production of IL-2 by Jurkat cells), and serial dilutions were prepared so that the final concentration would encompass the range of 0.001 to 10,000 nM in log increments. […] The stored supernatants were analyzed for human IL-2 concentration using the Luminex 100 (Luminex Corporation, Austin, Tex.), Luminex microspheres coupled with anti-IL-2 capture antibody, and fluorochrome-coupled anti-IL-2 detection antibody. The data were expressed as ng/ml of IL-2. […]

[3] = tested on: HT-29 human colon cancer cell line; conditions: HT-29 tumor xenografts, U.S. Pat. No. 6,620,843, cited from earlier work

SMILES | induction of apoptosis (percent apoptotic cells, Annexin V) [1] | inhibition of IL-2 production [2] | tumor regression [3] | tumor growth inhibition ([3]; in comparison to 5-FU and CPT-11)
CC(C)[C@]12O[C@H]1[C@@H]1O[C@]13[C@]1(O[C@H]1C[C@H]1C4=C(CC[C@@]13C)C(=O)OC4)[C@]2(C)O [PG670, 14-C-methyltriptolide] | dose-dependent induction of apoptosis | inhibition of IL-2 production | – | –
CC(C)[C@]12O[C@H]1[C@@H]1O[C@]13[C@]1(O[C@H]1C[C@H]1C4=C(CC[C@@]13C)C(=O)OC4)[C@@H]2OC(=O)CCC(=O)O [triptolide 14-succinate] | – | – | induced tumor regression | strongly inhibited tumor growth
